The experiment addresses T1, GlyT1 (Homo sapiens, UniProt P48067).
T1 construct: expressed in transfected cells
T1 sequence (P48067 1-706): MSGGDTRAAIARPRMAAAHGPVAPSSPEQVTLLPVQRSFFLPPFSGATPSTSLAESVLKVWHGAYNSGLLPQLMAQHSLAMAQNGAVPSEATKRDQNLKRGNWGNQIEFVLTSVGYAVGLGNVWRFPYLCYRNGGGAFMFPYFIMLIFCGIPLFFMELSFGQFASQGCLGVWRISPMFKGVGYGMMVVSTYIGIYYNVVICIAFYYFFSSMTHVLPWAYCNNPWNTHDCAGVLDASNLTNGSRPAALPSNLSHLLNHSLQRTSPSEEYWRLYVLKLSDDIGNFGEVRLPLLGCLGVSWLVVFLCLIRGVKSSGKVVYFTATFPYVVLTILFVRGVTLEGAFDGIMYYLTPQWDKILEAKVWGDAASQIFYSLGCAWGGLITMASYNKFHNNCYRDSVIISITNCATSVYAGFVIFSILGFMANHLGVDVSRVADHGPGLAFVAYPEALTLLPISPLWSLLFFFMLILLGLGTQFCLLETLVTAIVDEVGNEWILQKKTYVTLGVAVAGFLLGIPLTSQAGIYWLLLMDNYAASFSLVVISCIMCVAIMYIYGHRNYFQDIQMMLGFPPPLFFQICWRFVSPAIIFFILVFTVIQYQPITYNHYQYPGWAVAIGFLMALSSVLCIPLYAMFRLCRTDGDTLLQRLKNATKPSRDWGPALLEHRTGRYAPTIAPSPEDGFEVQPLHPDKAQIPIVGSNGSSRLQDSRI
Put plainly: Glycine Transporter 1 (GlyT1) uptake assay, scintillation proximity assay of [14C]-glycine uptake. The class given is cell-based. As to conditions: SPA, four parameter logistic fit, read-out: GlyT1 (pIC50) (converted). In outline: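 IC50 values derive from four-parameter logistic curves fitted to dose-response data. Uptake of [14C]-glycine measured in scintillation proximity format.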
Regarding `COc1c(C#N)ccc(OC(C)C)c1C(=O)N1Cc2cn(-c3ccc(F)c(C)n3)nc2C1` [Example 535, 3-[2-(5-Fluoro-6-methylpyridin-2-yl)-2H 4H 5H 6H-pyrrolo[3,4-c]pyrazole-5-carbonyl]-2-methoxy-4-(propan-2-yloxy)benzonitrile], the IC50 was < 100 nM.

Consider `COc1c(C#N)ccc(OCC2(C)COC2)c1C(=O)N1Cc2cn(-c3ccc(F)c(C)n3)nc2C1` [Example 536, 3-[2-(5-Fluoro-6-methylpyridin-2-yl)-2H 4H 5H 6H-pyrrolo[3,4-c]pyrazole-5-carbonyl]-2-methoxy-4-[(3-methyloxetan-3-yl)methoxy]benzonitrile], for which the IC50 is 100 to 1000 nM. For the molecule `COc1c(C#N)ccc(OC2COC2)c1C(=O)N1Cc2cn(-c3ccc(F)c(C)n3)nc2C1` [Example 537, 3-[2-(5-Fluoro-6-methylpyridin-2-yl)-2H 4H 5H 6H-pyrrolo[3,4-c]pyrazole-5-carbonyl]-2-methoxy-4-(oxetan-3-yloxy)benzonitrile], the IC50 was 100 to 1000 nM.

Regarding `Cc1cc(-n2cc3c(n2)CN(C(=O)c2cc(C#N)ccc2OCC2(C)COC2)C3)ccn1` [Example 538, 4-[(3-Methyloxetan-3-yl)methoxy]-3-[2-(2-methylpyridin-4-yl)-2H 4H 5H 6H-pyrrolo[3,4-c]pyrazole-5-carbonyl]benzonitrile], the IC50 is 1000 to 10000 nM. For the molecule `Cc1cc(-n2cc3c(n2)CN(C(=O)c2cc(C#N)ccc2OCC(F)(F)F)C3)ccn1` [Example 539, 3-[2-(2-Methylpyridin-4-yl)-2H 4H 5H 6H-pyrrolo[3,4-c]pyrazole-5-carbonyl]-4-(2 2 2-trifluoroethoxy)benzonitrile], the IC50 is 100 to 1000 nM.

As for `Cc1cc(-n2cc3c(n2)CN(C(=O)c2cc(C#N)ccc2OCC2CC2)C3)ccn1` [Example 540, 4-(Cyclopropylmethoxy)-3-[2-(2-methylpyridin-4-yl)-2H 4H 5H 6H-pyrrolo[3,4-c]pyrazole-5-carbonyl]benzonitrile], the IC50 is < 100 nM. Consider `Cc1cc(-n2cc3c(n2)CN(C(=O)c2cc(C#N)ccc2OC(C)(C)C(F)(F)F)C3)ccn1` [Example 542, 3-[2-(2-Methylpyridin-4-yl)-2H 4H 5H 6H-pyrrolo[3,4-c]pyrazole-5-carbonyl]-4-[(1 1 1-trifluoro-2-methylpropan-2-yl)oxy]benzonitrile], for which the IC50 was < 100 nM. In the case of `CCc1cc(-n2cc3c(n2)CN(C(=O)c2cc(C#N)ccc2OCC(F)(F)F)C3)ccn1` [Example 543, 3-[2-(2-Ethylpyridin-4-yl)-2H 4H 5H 6H-pyrrolo[3,4-c]pyrazole-5-carbonyl]-4-(2 2 2-trifluoroethoxy)benzonitrile], the IC50 was 100 to 1000 nM. Regarding `CCc1cc(-n2cc3c(n2)CN(C(=O)c2cc(C#N)ccc2OCC2CC2)C3)ccn1` [Example 544, 4-(Cyclopropylmethoxy)-3-[2-(2-ethylpyridin-4-yl)-2H 4H 5H 6H-pyrrolo[3,4-c]pyrazole-5-carbonyl]benzonitrile], the IC50 was 100 to 1000 nM. Then `CCc1cc(-n2cc3c(n2)CN(C(=O)c2cc(C#N)ccc2OCC(F)F)C3)ccn1` [Example 545, 4-(2 2-Difluoroethoxy)-3-[2-(2-ethylpyridin-4-yl)-2H 4H 5H 6H-pyrrolo[3,4-c]pyrazole-5-carbonyl]benzonitrile], with 100 to 1000 nM; and `CCc1cc(-n2cc3c(n2)CN(C(=O)c2cc(C#N)ccc2N2CCC(F)(F)CC2)C3)ccn1` [Example 546, 4-(4 4-Difluoropiperidin-1-yl)-3-[2-(2-ethylpyridin-4-yl)-2H 4H 5H 6H-pyrrolo[3,4-c]pyrazole-5-carbonyl]benzonitrile], with < 100 nM. Regarding `CS(=O)(=O)c1ccc(-c2ccc(C(F)(F)F)nc2)c(C(=O)N2Cc3cn(-c4ccccc4F)nc3C2)c1` [Example 547, 5-{2-[2-(2-Fluorophenyl)-2H 4H 5H 6H-pyrrolo[3,4-c]pyrazole-5-carbonyl]-4-methanesulfonylphenyl}-2-(trifluoromethyl)pyridine], the IC50 was 100 to 1000 nM.

With `CS(=O)(=O)c1ccc(-c2cncc(F)c2)c(C(=O)N2Cc3cn(-c4ccc(F)cn4)nc3C2)c1` [Example 548, 5-Fluoro-2-{5-[2-(5-fluoropyridin-3-yl)-5-methanesulfonylbenzoyl]-2H 4H 5H 6H-pyrrolo[3,4-c]pyrazol-2-yl}pyridine], the IC50 is 1000 to 10000 nM. Consider `Cc1cncc(-c2ccc(S(C)(=O)=O)cc2C(=O)N2Cc3cn(-c4ccc(F)cn4)nc3C2)c1` [Example 549, 5-Fluoro-2-{5-[5-methanesulfonyl-2-(5-methylpyridin-3-yl)benzoyl]-2H 4H 5H 6H-pyrrolo[3,4-c]pyrazol-2-yl}pyridine], for which the IC50 is < 100 nM. Consider `N#Cc1ccc(-c2ccccc2F)c(C(=O)N2Cc3cn(-c4cncc(F)c4)nc3C2)c1` [Example 550, 4-(2-Fluorophenyl)-3-[2-(5-fluoropyridin-3-yl)-2H 4H 5H 6H-pyrrolo[3,4-c]pyrazole-5-carbonyl]benzonitrile], for which the IC50 is 1000 to 10000 nM. In the case of `N#Cc1ccc(-c2cncc(F)c2)c(C(=O)N2Cc3cn(-c4cncc(F)c4)nc3C2)c1` [Example 552, 4-(5-Fluoropyridin-3-yl)-3-[2-(5-fluoropyridin-3-yl)-2H 4H 5H 6H-pyrrolo[3,4-c]pyrazole-5-carbonyl]benzonitrile] it was 100 to 1000 nM; in that of `N#Cc1ccc(-c2cccnc2)c(C(=O)N2Cc3cn(-c4cncc(F)c4)nc3C2)c1` [Example 553], 100 to 1000 nM; in that of `Cc1cc(-n2cc3c(n2)CN(C(=O)c2cc(C#N)ccc2-c2ccccc2F)C3)ccn1` [Example 554, 4-(2-Fluorophenyl)-3-[2-(2-methylpyridin-4-yl)-2H 4H 5H 6H-pyrrolo[3,4-c]pyrazole-5-carbonyl]benzonitrile], 1000 to 10000 nM. For the molecule `CS(=O)(=O)c1ccc(-c2cccnc2)c(C(=O)N2Cc3cn(-c4ccccc4F)nc3C2)c1` [Example 555, (2-(2-Fluorophenyl)pyrrolo[3,4-c]pyrazol-5(2H,4H,6H)-yl)(5-(methylsulfonyl)-2-(pyridin-3-yl)phenyl)methanone], the IC50 was 100 to 1000 nM. Then `Cc1cc(-n2cc3c(n2)CN(C(=O)c2cc(C#N)ccc2-c2cncc(F)c2)C3)ccn1` [Example 556, 4-(5-Fluoropyridin-3-yl)-3-[2-(2-methylpyridin-4-yl)-2H 4H 5H 6H-pyrrolo[3,4-c]pyrazole-5-carbonyl]benzonitrile], with < 100 nM; and `N#Cc1ccc(-c2cccc(F)c2)c(C(=O)N2Cc3cn(C4CCOCC4)nc3C2)c1` [Example 557, 4-(3-Fluorophenyl)-3-[2-(oxan-4-yl)-2H 4H 5H 6H-pyrrolo[3,4-c]pyrazole-5-carbonyl]benzonitrile], with 100 to 1000 nM.

In the case of `Cc1cccc(-c2ccc(C#N)cc2C(=O)N2Cc3cn(C4CCOCC4)nc3C2)c1` [Example 558, 4-(3-Methylphenyl)-3-[2-(oxan-4-yl)-2H 4H 5H 6H-pyrrolo[3,4-c]pyrazole-5-carbonyl]benzonitrile], the IC50 was > 10000 nM. Then `CS(=O)(=O)c1ccc(-c2ccccc2F)c(C(=O)N2Cc3cn(-c4ccccc4F)nc3C2)c1` [Example 559, 2-(2-Fluorophenyl)-5-[2-(2-fluorophenyl)-5-methanesulfonylbenzoyl]-2H 4H 5H 6H-pyrrolo[3,4-c]pyrazole], with < 100 nM; and `CS(=O)(=O)c1ccc(-c2cccc(F)c2)c(C(=O)N2Cc3cn(-c4ccccc4F)nc3C2)c1` [Example 560, 2-(2-Fluorophenyl)-5-[2-(3-fluorophenyl)-5-methanesulfonylbenzoyl]-2H 4H 5H 6H-pyrrolo[3,4-c]pyrazole], with < 100 nM; and `CS(=O)(=O)c1ccc(-c2cncc(F)c2)c(C(=O)N2Cc3cn(-c4ccccc4F)nc3C2)c1` [Example 561, 3-Fluoro-5-{2-[2-(2-fluorophenyl)-2H 4H 5H 6H-pyrrolo[3,4-c]pyrazole-5-carbonyl]-4-methanesulfonylphenyl}pyridine], with < 100 nM. For `Cc1cc(-n2cc3c(n2)CN(C(=O)c2cc(C#N)ccc2-c2cc(F)cc(F)c2)C3)ccn1` [Example 562, 4-(3 5-Difluorophenyl)-3-[2-(2-methylpyridin-4-yl)-2H 4H 5H 6H-pyrrolo[3,4-c]pyrazole-5-carbonyl]benzonitrile], the IC50 is 100 to 1000 nM. In the case of `CS(=O)(=O)c1ccc(-c2cc(F)cc(F)c2)c(C(=O)N2Cc3cn(-c4cncc(F)c4)nc3C2)c1` [Example 563, 3-{5-[2-(3 5-Difluorophenyl)-5-methanesulfonylbenzoyl]-2H 4H 5H 6H-pyrrolo[3,4-c]pyrazol-2-yl}-5-fluoropyridine] it was < 100 nM; in that of `Cc1cccc(-c2ccc(C#N)cc2C(=O)N2Cc3cn(-c4ccnc(C)c4)nc3C2)c1` [Example 564, 4-(3-Methylphenyl)-3-[2-(2-methylpyridin-4-yl)-2H 4H 5H 6H-pyrrolo[3,4-c]pyrazole-5-carbonyl]benzonitrile], 1000 to 10000 nM; in that of `Cc1cc(-n2cc3c(n2)CN(C(=O)c2cc(C#N)ccc2-c2cccc(C(F)(F)F)c2)C3)ccn1` [Example 565, 3-[2-(2-Methylpyridin-4-yl)-2H 4H 5H 6H-pyrrolo[3,4-c]pyrazole-5-carbonyl]-4-[3-(trifluoromethyl)phenyl]benzonitrile], 1000 to 10000 nM.

(Values after patent US9708334B2, “Substituted 2,4,5,6-tetrahydropyrrolo[3,4-c]pyrazole and 4,5,6,7-tetrahydro-2H-pyrazolo[4,3-c]pyridine compounds as GlyT1 inhibitors” (DART NEUROSCIENCE (CAYMAN) LTD., priority 2014, dated 2017).)
